Assays:
crabgrass = test: Test B pre/postemergence crabgrass; type: in vivo, Digitaria sanguinalis
Summary of the method: (§1)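 Response is a visual 0-to-10 score relative to untreated plants, where 0 means no effect and 10 means complete control, taken twelve to sixteen days after application. Treatments went onto soil at planting and onto foliage of 1- to 4-leaf plants, using a surfactant-containing non-phytotoxic solvent.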

rice = test: Test B flood test rice; type: in vivo, Oryza sativa
Summary of the method: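 Read-out is a visual response score from 0 (no effect) to 10 (complete control), assigned by comparison with untreated controls. Treatment was applied at the 2-leaf stage, and plants stayed in the greenhouse for twelve to sixteen days before scoring.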

corn = test: Test B pre/postemergence corn; type: in vivo, Zea mays
Summary of the method: as §1

sugar beet = test: Test B pre/postemergence sugar beet; type: in vivo, Beta vulgaris
Summary of the method: as §1

[1] = Postemergence, Rate 62 g/ha, scale 0 to 10, 0 is no effect, 10 is complete control
[2] = Postemergence, Rate 250 g/ha, scale 0 to 10, 0 no effect, 10 complete control
[3] = Preemergence, Rate 62 g/ha, scale 0 to 10, 0 is no effect, 10 is complete control
[4] = Preemergence, Rate 125 g/ha, scale 0 to 10 (0 no effect, 10 complete control)
[5] = Preemergence, Rate 250 g/ha, scale of 0 to 10 where 0 is no effect and 10 is complete control
[6] = Preemergence, Rate 500 g/ha, scale 0 (no effect) to 10 (complete control)
[7] = Rate 125 g/ha, Postemergence, scale 0 to 10, 0 no effect, 10 complete control
[8] = Rate 500 g/ha, Postemergence, 0 to 10 scale (0 no effect, 10 complete control)
[9] = Postemergence, Rate 125 g/ha, scale 0 to 10, 0 is no effect, 10 is complete control
[10] = Postemergence, Rate 250 g/ha, scale 0 to 10, 0 is no effect, 10 is complete control
[11] = Postemergence, Rate 500 g/ha, scale of 0 to 10 where 0 is no effect and 10 is complete control
[12] = Preemergence, Rate 62 g/ha, scale 0 to 10 (0 no effect, 10 complete control)
[13] = Preemergence, Rate 125 g/ha, scale of 0 to 10 where 0 is no effect and 10 is complete control
[14] = Preemergence, Rate 250 g/ha, scale 0 to 10, 0 is no effect, 10 is complete control
[15] = Preemergence, Rate 500 g/ha, scale 0 to 10, 0 is no effect, 10 is complete control
[16] = Rate 62 g/ha, Postemergence, scale of 0 to 10 where 0 is no effect and 10 is complete control
[17] = Postemergence, Rate 125 g/ha, scale of 0 to 10 where 0 is no effect and 10 is complete control
[18] = Preemergence, Rate 125 g/ha, 0 is no effect, 10 is complete control
[19] = Preemergence, Rate 500 g/ha, scale 0 to 10 (0 no effect, 10 complete control)
[20] = Rate 250 g/ha, Postemergence, scale 0 to 10, 0 is no effect, 10 is complete control
[21] = Rate 500 g/ha, Postemergence, scale 0 to 10

Cc1ccccc1-n1c(=O)on(C(=O)N(c2cc(OC(C)C)c(Cl)cc2Cl)C(C)C)c1=O [Compound 42]
Crabgrass plant response rating (crabgrass; [1]): 0 | Crabgrass plant response rating (crabgrass; [2]): 0 | Plant response rating, Crabgrass (crabgrass; [3]): 0 | Plant response rating, Crabgrass (crabgrass; [4]): 0 | Plant response rating, Crabgrass (crabgrass; [5]): 0 | Crabgrass plant response rating (crabgrass; [6]): 0 | Crabgrass plant response rating (crabgrass; [7]): 0 | Crabgrass plant response rating (crabgrass; [8]): 0 | Rice plant response rating (rice; [1]): 0 | Rice plant response rating (rice; Rate 125 g/ha, Postemergence section (flood test species), scale 0 to 10, 0 no effect, 10 complete control): 0 | Rice plant response rating (rice; Rate 500 g/ha, Postemergence section of Table B, 0 to 10 scale (0 no effect, 10 complete control)): 0 | Rice plant response rating (rice; flood test, listed under Postemergence, Rate 250 g/ha, scale 0 to 10, 0 no effect, 10 complete control): 0 | Corn plant response rating (corn; [1]): 0 | Corn plant response rating (corn; [2]): 0 | Plant response rating, Corn (corn; [3]): 0 | Plant response rating, Corn (corn; [4]): 0 | Plant response rating, Corn (corn; [5]): 0 | Corn plant response rating (corn; [6]): 0 | Corn plant response rating (corn; [7]): 0 | Corn plant response rating (corn; [8]): 0 | Sugarbeets plant response rating (sugar beet; [1]): 0 | Sugarbeets plant response rating (sugar beet; [2]): 0 | Plant response rating, Sugarbeets (sugar beet; [3]): 0 | Plant response rating, Sugarbeets (sugar beet; [4]): 0 | Plant response rating, Sugarbeets (sugar beet; [5]): 0 | Sugarbeets plant response rating (sugar beet; [6]): 0 | Sugarbeets plant response rating (sugar beet; [7]): 0

CC(C)N(C(=O)n1oc(=O)n(CC2CCC2)c1=O)c1ccc(F)cc1 [Compound 403]
Plant response rating, Crabgrass (crabgrass; [9]): 3 | Plant response rating, Crabgrass (crabgrass; [10]): 8 | Crabgrass plant response rating (crabgrass; [11]): 9 | Plant response rating, Crabgrass (crabgrass; [12]): 10 | Plant response rating, Crabgrass (crabgrass; [13]): 10 | Crabgrass plant response rating (crabgrass; [14]): 10 | Crabgrass plant response rating (crabgrass; [15]): 10 | Crabgrass plant response rating (crabgrass; [16]): 2 | Plant response rating, Rice (0 to 10 scale, 0 is no effect, 10 is complete control) (rice; Rate 62 g/ha, flood test species, Pre-emergence, visual evaluation after twelve to sixteen days): 0 | Rice plant response rating (0 to 10 scale, 0 is no effect, 10 is complete control) (rice; Rate 125 g/ha, under heading Pre-emergence, flood test species, visual evaluation after twelve to sixteen days): 0 | Rice plant response rating (rice; Rate 250 g/ha, Pre-emergence, flood-test species, scale 0 to 10, 0 is no effect, 10 is complete control): 0 | Rice plant response rating (rice; Rate 500 g/ha, Pre-emergence, flood test species, scale 0 to 10 (0 no effect, 10 complete control)): 0 | Plant response rating, Corn (corn; [9]): 0 | Plant response rating, Corn (corn; [10]): 0 | Corn plant response rating (corn; [11]): 0 | Plant response rating, Corn (corn; [12]): 0 | Plant response rating, Corn (corn; [13]): 2 | Corn plant response rating (corn; [14]): 2 | Corn plant response rating (corn; [15]): 6 | Corn plant response rating (corn; [16]): 0 | Plant response rating, Sugarbeets (sugar beet; [10]): 0 | Sugarbeets plant response rating (sugar beet; [11]): 3 | Plant response rating, Sugarbeets (sugar beet; [12]): 0 | Plant response rating, Sugarbeets (sugar beet; [13]): 1 | Sugarbeets plant response rating (sugar beet; [14]): 3 | Sugarbeets plant response rating (sugar beet; [15]): 5 | Sugarbeets plant response rating (sugar beet; [16]): 0

CN(C(=O)n1oc(=O)n(Cc2ccccc2)c1=O)c1ccccc1 [Compound 153]
Crabgrass plant response rating (crabgrass; [17]): 0 | Crabgrass plant response rating (crabgrass; [12]): 0 | Crabgrass plant response rating (0 to 10 scale) (crabgrass; [18]): 0 | Crabgrass plant response rating (crabgrass; [14]): 0 | Crabgrass plant response rating (crabgrass; [19]): 0 | Crabgrass plant response rating (crabgrass; [16]): 0 | Plant response rating, Crabgrass (crabgrass; [20]): 0 | Crabgrass plant response rating (crabgrass; [21]): 0 | Rice plant response rating (rice; Postemergence (flood test species), Rate 125 g/ha, scale of 0 to 10 where 0 is no effect and 10 is complete control): 0 | Rice plant response rating (rice; Rate 62 g/ha, Postemergence section, flood test species, scale of 0 to 10 where 0 is no effect and 10 is complete control): 0 | Plant response rating, Rice (rice; Rate 250 g/ha, Postemergence (flood test), scale 0 to 10, 0 is no effect, 10 is complete control): 0 | Rice plant response rating (rice; Rate 500 g/ha, listed under Postemergence (flood test species), scale 0 to 10): 0 | Corn plant response rating (corn; [17]): 0 | Corn plant response rating (corn; [12]): 0 | Corn plant response rating (0 to 10 scale) (corn; [18]): 0 | Corn plant response rating (corn; [14]): 0 | Corn plant response rating (corn; [19]): 0 | Corn plant response rating (corn; [16]): 0 | Plant response rating, Corn (corn; [20]): 0 | Corn plant response rating (corn; [21]): 0 | Sugarbeets plant response rating (sugar beet; [17]): 0 | Sugarbeets plant response rating (sugar beet; [12]): 0 | Sugarbeets plant response rating (0 to 10 scale) (sugar beet; [18]): 0 | Sugarbeets plant response rating (sugar beet; [14]): 0 | Sugarbeets plant response rating (sugar beet; [19]): 0 | Sugarbeets plant response rating (sugar beet; [16]): 0 | Plant response rating, Sugarbeets (sugar beet; [20]): 0 | Sugarbeets plant response rating (sugar beet; [21]): 0
